Reference: patent US20230183193A1, “4-DIFLUOROMETHYL BENZOYL AMIDES WITH HERBICIDAL ACTION” (BAYER CROPSCIENCE AKTIENGESELLSCHAFT, priority 2017, published 2023)

Tests used:
Format in all cases: in vivo
Abutilon theophrasti [1] = assay: Pre-emergence herbicidal action, ABUTH; conditions: dosage 320 g/ha, scored visually after 3 weeks vs untreated controls
Method in brief: (§1)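 Percent herbicidal activity rated by eye 3 weeks after pre-emergence soil-surface application, compared with untreated pots. Seeds sat under sandy loam; sprays carried 0.2% wetting agent.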

Alopecurus myosuroides [2] = assay: Pre-emergence herbicidal action, ALOMY; conditions: dosage 320 g/ha, scored visually after 3 weeks vs untreated controls
Method in brief: as §1

Amaranthus retroflexus [3] = assay: Pre-emergence herbicidal action, AMARE; conditions: dosage 320 g/ha, scored visually after 3 weeks vs untreated controls
Method in brief: as §1

Avena fatua [4] = assay: Pre-emergence herbicidal action, AVEFA; conditions: dosage 320 g/ha, scored visually after 3 weeks vs untreated controls
Method in brief: as §1

Cyperus serotinus = assay: Pre-emergence herbicidal action, CYPES; conditions: dosage 320 g/ha, scored visually after 3 weeks vs untreated controls
Method in brief: as §1

Matricaria inodora = assay: Pre-emergence herbicidal action, MATIN; conditions: dosage 320 g/ha, scored visually after 3 weeks vs untreated controls
Method in brief: as §1

Setaria viridis [5] = assay: Pre-emergence herbicidal action, SETVI; conditions: dosage 320 g/ha, scored visually after 3 weeks vs untreated controls
Method in brief: as §1

Stellaria media [6] = assay: Pre-emergence herbicidal action, STEME; conditions: dosage 320 g/ha, scored visually after 3 weeks vs untreated controls
Method in brief: as §1

Viola tricolor [7] = assay: Pre-emergence herbicidal action, VIOTR; conditions: dosage 320 g/ha, scored visually after 3 weeks vs untreated controls
Method in brief: as §1

Abutilon theophrasti [8] = assay: Post-emergence herbicidal action, ABUTH; conditions: 80 g/ha, Table D
Method in brief: (§2)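 Post-emergence spray; one-leaf stage (2–3 wk after sowing), sandy loam, greenhouse. WP/EC in water, 600 to […], +0.2% wetting agent. Visual % damage vs untreated at ~3 wk; 100% = plants dead.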

Alopecurus myosuroides [9] = assay: Post-emergence herbicidal action, ALOMY; conditions: 80 g/ha, Table C
Method in brief: as §2

Amaranthus retroflexus [10] = assay: Post-emergence herbicidal action, AMARE; conditions: 80 g/ha, Table D
Method in brief: as §2

Avena fatua [11] = assay: Post-emergence herbicidal action, AVEFA; conditions: 80 g/ha, Table C
Method in brief: as §2

Pharbitis purpureum = assay: Post-emergence herbicidal action, PHBPU; conditions: 80 g/ha, Table D
Method in brief: as §2

Setaria viridis [12] = assay: Post-emergence herbicidal action, SETVI; conditions: 80 g/ha, Table C
Method in brief: as §2

Stellaria media [13] = assay: Post-emergence herbicidal action, STEME; conditions: 80 g/ha, Table D
Method in brief: as §2

Viola tricolor [14] = assay: Post-emergence herbicidal action, VIOTR; conditions: 80 g/ha, Table D
Method in brief: as §2

ECHCG = assay: Post-emergence herbicidal action, ECHCG; conditions: 80 g/ha, Table C
Method in brief: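 Weed and crop plants grown in sandy loam in the greenhouse, treated at the one-leaf stage 2–3 weeks after sowing. Damage scored visually after about 3 weeks vs untreated controls (0% = control, 100% = dead).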

| Compound | herbicidal activity ABUTH (Abutilon theophrasti [1]) [%] | herbicidal activity ALOMY (Alopecurus myosuroides [2]) [%] | herbicidal activity AMARE (Amaranthus retroflexus [3]) [%] | herbicidal activity AVEFA (Avena fatua [4]) [%] | herbicidal activity CYPES (Cyperus serotinus) [%] | herbicidal activity MATIN (Matricaria inodora) [%] | herbicidal activity SETVI (Setaria viridis [5]) [%] | Herbicidal activity STEME (Stellaria media [6]) [%] | herbicidal activity VIOTR (Viola tricolor [7]) [%] | herbicidal activity ABUTH (Abutilon theophrasti [8]) [%] | herbicidal activity ALOMY (Alopecurus myosuroides [9]) [%] | herbicidal activity AMARE (Amaranthus retroflexus [10]) [%] | herbicidal activity AVEFA (Avena fatua [11]) [%] | Herbicidal activity PHBPU (Pharbitis purpureum) [%] | herbicidal activity SETVI (Setaria viridis [12]) [%] | Herbicidal activity STEME (Stellaria media [13]) [%] | herbicidal activity VIOTR (Viola tricolor [14]) [%] | Herbicidal activity ECHCG (ECHCG) [%] |
| --- | --- | --- | --- | --- | --- | --- | --- | --- | --- | --- | --- | --- | --- | --- | --- | --- | --- | --- |
| CCc1c(C(=O)Nc2nnnn2C)ccc(C(F)F)c1[S+]([O-])CC (stereo not drawn) [Example 1-17] | 100 | 100 | 100 | 100 | 100 | 100 | 100 | 100 | 100 | 100 | 90 | 100 | 90 | 90 | 90 | 100 | 100 | 90 |
| CCn1nnnc1NC(=O)c1ccc(C(F)F)c(SC)c1F [Example 2-37] | 100 | 90 | 100 | 100 | 80 | 100 | 100 | 100 | 100 | 100 | 80 | 100 | 90 | 100 | 100 | 100 | 90 | 100 |
| CCSc1c(C(F)F)ccc(C(=O)Nc2nnnn2CC)c1C1CC1 [Example 2-28] | 100 | 100 | 100 | 100 | 100 | 100 | 100 | 100 | 100 | 100 | 90 | 100 | 100 | 100 | 100 | 100 | 100 | 100 |
| Cn1nnnc1NC(=O)c1ccc(C(F)F)c(S(C)(=O)=O)c1F [Example 1-39] | 100 | 90 | 100 | 100 | 90 | 100 | 100 | 100 | 100 | 90 | 90 | 100 | 80 | 100 | 100 | 100 | 100 | 90 |
| CCn1nnnc1NC(=O)c1ccc(C(F)F)c(S(=O)(=O)CC)c1C1CC1 [Example 2-30] | 100 | 100 | 100 | 100 | 90 | 100 | 100 | 100 | 100 | 100 | 90 | 100 | 90 | 90 | 100 | 100 | 100 | 100 |
| CC[S+]([O-])c1c(C(F)F)ccc(C(=O)Nc2ncnn2C)c1Cl (stereo not drawn) [Example 4-53] | 100 | 100 | 100 | 100 | 100 | 100 | 100 | 100 | 100 | 100 | 90 | 100 | 100 | 90 | 100 | 90 | 100 | 90 |
| CCSc1c(C(F)F)ccc(C(=O)Nc2nnnn2C)c1Cl [Example 1-52] | 100 | 100 | 100 | 100 | 90 | 100 | 100 | 100 | 100 | 100 | 100 | 100 | 100 | 100 | 90 | 100 | 100 | 90 |
| CCn1nnnc1NC(=O)c1ccc(C(F)F)c(S(C)(=O)=O)c1C [Example 2-3] | 100 | 90 | 100 | 100 | 100 | 100 | 100 | 90 | 100 | 80 | 80 | 80 | 90 | 100 | 100 | 100 | 100 | 90 |
| CCSc1c(C(F)F)ccc(C(=O)Nc2nnnn2C)c1C1CC1 [Example 1-28] | 100 | 100 | 100 | 100 | 100 | 100 | 100 | 100 | 100 | 100 | 90 | 100 | 100 | 100 | 100 | 100 | 100 | 100 |
| CCc1c(C(=O)Nc2nnnn2C)ccc(C(F)F)c1S(=O)(=O)CC [Example 1-18] | 100 | 100 | 100 | 100 | 100 | 100 | 100 | 100 | 100 | 100 | 90 | 100 | 100 | 90 | 100 | 100 | 100 | 90 |
| CCc1c(C(=O)Nc2nnnn2CC)ccc(C(F)F)c1SC [Example 2-13] | 100 | 100 | 100 | 100 | 100 | 100 | 100 | 100 | 100 | 100 | 80 | 100 | 90 | 100 | 100 | 100 | 100 | 90 |
